# From patent publication US6414021B1, “Control of intraocular pressure during surgery” (Sucampo AG, priority 2000, dated 2002)
# Assays:
# [1] = tested on: intraocular pressure in monkeys; experiment: Intraocular pressure lowering effect by perfusion in the anterior chamber in monkeys (Example 1, 59 ng/mL); type: in vivo, cynomolgus monkeys; conditions: for IOP decrease as compared with changes in IOP of the control after vehicle perfusion: 59 ng/mL, anterior chamber perfusion 50 μL/min for 1 hour, n=2
# Procedure: The intraocular pressure lowering effect of 15-keto acid of latanoprost (13,14-dihydro-15-keto-17-phenyl-18,19,20-trinor-PGF2α) by perfusion in the anterior chamber in monkeys was investigated.
# Male cynomolgus monkeys (body weight: 4.5-6.5 kg) were used. These monkeys were housed individually in cages for monkeys in a room which was maintained at room temperature of 24±1° C., relative humidity of 55±10%, ventilation of about 12 times/hour and a 12-hour light-dark cycle (fluorescent lighting: 8:00 a.m. to 8:00 p.m). The animals were given solid food for monkeys (PS, Oriental Yeast Co., Ltd.), vegetables and fruits, and allowed free access to tap water from an automatic dispenser. The healthy animals without abnormalities in the anterior segment of the eye were used in this study.
# In the present study the solution containing 59 ng/mL of 15-keto acid of latanoprost was adjusted with commercially available intraocular perfusate (Opeguard-MA, Lot P-464, Senju Pharmaceutical Co., Ltd.). The control solution (vehicle) was the intraocular perfusate.
# The animals were anesthetized by the injection intramuscularly with 5.0-7.5 mg/kg of ketamine hydrochloride (Ketalar®50, Sankyo Co., Ltd.), and restrained in a supine position. In operation and perfusion of the dosing solution in the anterior chamber, the anesthesia was maintained by intramuscular injection of 5 mg/kg of ketamine at interval of 30 minutes. […]
# After the ocular surface of monkeys was anesthetized by instillation of 0.4% oxybuprocaine hydrochloride (Benoxil® 0.4% solution, Santen Pharmaceutical Co., Ltd.) under i.m. systemic anesthesia with 5 mg/kg of ketamine hydrochloride, IOP was measured with an applanation pneumatonograph (Alcon Japan Ltd.). IOP was measured before perfusion of the test substance and 2 and 4 hours after perfusion (3 and 5 hours, respectively, after the start of the perfusion of the test substance). The mean value of the IOP measured twice at 30-minute interval before perfusion was used as IOP before perfusion of the test substance. […]
# [2] = tested on: intraocular pressure in monkeys; experiment: Effects on intraocular pressure by intra-anterior chamber perfusion with a lower dosage in monkeys (Example 2, 2 ng/mL); type: in vivo, cynomologus monkeys; conditions: for IOP: perfusion 40 μL/min for 1 hour; for IOP / Difference in IOP between both treatments (IOP in 15-keto acid of latanoprost treatment minus IOP in vehicle treatment) / ΔIOP: Changes of IOP from pre-treatment value: mean ± S.E. of 7 animals
# Procedure: The effects on intraocular pressure by intra-anterior chamber perfusion with a lower dosage of 13,14-dihydro-15-keto-17-phenyl-18,19,20-trinor-PGF2 α (15-keto acid of latanoprost) were investigated in monkeys. One hour perfusion in the anterior chamber with 15-keto acid of latanoprost at the concentration (2 ng/mL) was carried out.
# The solution containing 15-keto acid of latanoprost at 2 ng/mL was prepared with a commercially available intraocular perfusate (Opeguard MA, Senju Pharmaceutical Co. Ltd.) as a vehicle.
# Seven male cynomologus monkeys (Body weight: 3.9-6.0 kg) purchased from Kasyo Co., Ltd. were used. These monkeys were housed individually in cages in a room which was maintained at room temperature of 24±1° C., relative humidity of 55±10%, ventilation rate of about 12 times/hour and 12-hour light-dark cycle (fluorescent lighting: 8:00 to 20:00). The animals were given food pellets for monkeys (PS, Oriental Yeast Co., Ltd.), vegetables and fruits once a day, and allowed free access to tap water from an automatic dispenser. The healthy animals without abnormalities in the anterior segment of the eye were used in this study.
# The animals were anesthetized by an intramuscular injection of 5.0-7.5 mg/kg of katamine hydrochloride (Ketalar 50, Sankyo Co., Ltd.), and restrained in a supine position. Two 30 G injection needles (one for infusion of the dosing solution and the other for discharge, Becton Dickinson and Co.) connected to polyethylene cannula (PE10, Becton Dickinson and Co.) were inserted into the anterior chamber from the temporal corneal ring of the eye ball. The anterior chamber was perfused with the 15-keto acid of latanoprost solution or the vehicle at a rate of 40 μL/min through the cannula for 1 hour using a syringe pump (Model 100, KD Scientific Inc.). During the perfusion, the anesthesia was maintained by intramuscular injection of 5.0 mg/kg ketamine hydrochloride every 20 minutes.
# The animals were systemically anesthetized by an intramuscular injection of 5.0-7.5 mg/kg of ketamine hydrochloride (Ketalar 50, Sankyo Co., Ltd.), and the ocular surface was anesthetized by a instillation of 0.4% oxybuprocaine hydrochloride (Benoxil 0.4% solution, Santen Pharmaceutical Co., Ltd.). The animals were fixed in a supine position, and the intraocular pressure was measured by use of a pneumatonometer (Model 30 Classic, Mentor O & O.) before, and 3 and 5 hours after starting the perfusion (2 and 4 hours after stopping the perfusion, respectively).
# The animals were used two times. The same eye of each animal was used for both treatments in a crossover way with a recovery period for at least 12 days.
# The data were statistically analyzed with Student's t-test or paired t-test. P values less than 0.05 were considered to be statistically significant.
# [3] = 2 ng/mL, 3 hours after starting perfusion
# [4] = 2 ng/mL, 5 hours after starting perfusion
compound,measurement,setting,value
"O=C(O)CCC/C=C\C[C@@H]1[C@@H](CCC(=O)CCc2ccccc2)[C@H](O)C[C@@H]1O [15-keto acid of latanoprost, 13,14-dihydro-15-keto-17-phenyl-18,19,20-trinor-PGF2α]",IOP decrease as compared with changes in IOP of the control after vehicle perfusion,[1]; 3 hours after the start of perfusion,2.8 mmHg
same,IOP decrease as compared with changes in IOP of the control after vehicle perfusion,[1]; 5 hours after the start of perfusion,2.3 mmHg
same,effect on intraocular pressure (in words),"[1]; perfusion in the anterior chamber, monkeys",intraocular pressure was lowered
same,effect on intraocular pressure (in words),"[2]; 2 ng/mL solution, intra-anterior chamber perfusion",significant reduction in the intraocular pressure
same,IOP,[2]; [3],23.1 ± 1.3 mmHg
same,IOP,[2]; [4],24.4 ± 0.7 mmHg
same,IOP,"[2]; 2 ng/mL, before perfusion",24.1 ± 0.8 mmHg
same,Difference in IOP between both treatments (IOP in 15-keto acid of latanoprost treatment minus IOP in vehicle treatment),[2]; [3],−2.9 ± 1.1 mmHg
same,ΔIOP: Changes of IOP from pre-treatment value,[2]; [3],−1.0 ± 0.7 mmHg
same,lowering of intraocular pressure as compared with the pre-treatment value,"[2]; 2 ng/mL, 3 hours after starting the perfusion",1.0 mmHg
same,Difference in IOP between both treatments (IOP in 15-keto acid of latanoprost treatment minus IOP in vehicle treatment),[2]; [4],0.0 ± 1.0 mmHg
same,ΔIOP: Changes of IOP from pre-treatment value,[2]; [4],0.3 ± 0.7 mmHg
same,Difference in IOP between both treatments (IOP in 15-keto acid of latanoprost treatment minus IOP in vehicle treatment),"[2]; 2 ng/mL, before perfusion",0.7 ± 1.1 mmHg
